Tests used:
[1] = test system: restraint-induced depression-like behaviors; experiment: Forced swimming test after 5-hour restraint; type: in vivo, C57B6 male mice
Description: The experimental animals were C57B6 male mice, n=8 in each group. 5-hour restraint were used to develop depression-like behavioral representations of the mice, then the effects of the compounds on their “depression-like” behaviors were measured according to behavioral performance in tail suspension test and forced swimming test. The specific experimental procedures were as follows: Firstly, the mice were restrained using a mouse fixator for tail vein injection. During the restraint process, all movement abilities of the mice were restricted under the condition of introducing minimal pain to the mice. Compounds were administered intraperitoneally twice, before and after restraint, respectively. After compound administration, the mice returned to the cage to recover for 30 minutes. […]
Forced swimming test: the mice were placed in a 5 L glass beaker filled with water, with the water level at 15 cm height, and the mice were forced to swim continuously in the beaker for 6 minutes. […] The duration of the immobility behavior was recorded intermittently for the remaining 4 minutes, and the immobility behavior of the mice was defined as: the mice float passively on the surface of the water without movement, with only small local movements required to maintain afloat. The duration of this immobility was measured to assess the level of behavioral despair in the mice. […]

5-HT1A receptor = 5-HT1A receptor (Homo sapiens (Human), UniProt P08908); experiment: Affinity for 5-HT1A receptors, radioligand competition with [3H]-LSD; type: binding; conditions: 293T membrane transiently expressing 5-HT1A; [3H]-LSD; read-out: 5-HT1A affinity Ki;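 also: membranes from cells transiently transfected with 5-HT1A receptor, bound [3H]-LSD displaced by compound at 10^-9 to 10^-5 M, 2 h incubation at room temperature in the dark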
5-HT1A receptor, sequence (P08908 whole entry): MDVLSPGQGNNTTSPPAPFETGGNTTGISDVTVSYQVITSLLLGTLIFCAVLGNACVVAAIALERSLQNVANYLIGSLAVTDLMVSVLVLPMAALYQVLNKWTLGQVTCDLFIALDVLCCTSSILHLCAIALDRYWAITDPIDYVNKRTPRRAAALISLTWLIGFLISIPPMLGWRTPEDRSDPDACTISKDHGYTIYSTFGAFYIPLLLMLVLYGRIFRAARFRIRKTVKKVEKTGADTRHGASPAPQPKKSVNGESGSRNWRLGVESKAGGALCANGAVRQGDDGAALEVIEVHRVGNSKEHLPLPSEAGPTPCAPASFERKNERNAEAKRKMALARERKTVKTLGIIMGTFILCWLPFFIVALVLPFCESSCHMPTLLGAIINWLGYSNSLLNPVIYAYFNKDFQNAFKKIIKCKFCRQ
Description: The affinity of the compounds of the present disclosure for the 5-HTIA receptors was determined by the method of radioligand competition experiment. In the first step, a cell membrane component containing specific 5-HTIA receptor was prepared. A 10 cm culture dish was used for transfection with 10 ng of the 5-HTIA receptor and 40 μL of PEI. After 48 hours, the 10 cm culture dish was taken out from the cell incubator and the cultured cells had expressed the 5-HTIA receptor. A vacuum pump was used to suck off the culture medium, 3 mL of lysis buffer was added to each culture dish, and the cells were placed in a 4° C. cold room for 10 minutes. After the cells were detached, the cells were transferred to a 15 mL centrifuge tube and centrifuged at 1500 rpm for 5 minutes at 4° C., and the supernatant was discarded. The cell pellet was transferred to a tissue homogenizer, and 3 mL of lysis buffer was added and fully ground until the cells were broken. Then, cell suspension was equally aliquoted into several EP tubes, centrifuged at 12000 rpm for 5 minutes at 4° C., and the supernatant was discarded. The precipitate was the cell membrane component containing the 5-HT1A receptor. […] First, a standard binding buffer was added to the cell membrane component containing the 5-HT1A receptor, and the cell membrane was disrupted and resuspended with an electric tissue homogenizer. 30 μL of membrane protein suspension was added to each well of a 96-well plate. Then, 30 μL of different drugs were added to the 96-well plate sequentially from bottom to top to ensure that the final drug concentrations were 10^−5 M, 10^−6 M, 10^−7 M, 10^−8 M, 10^−9 M, and 0 M, with two replicates per treatment. Next, 30 μL of [3H]-LSD was added to each well of the 96-well plate. The plate was incubated for 2 hours at room temperature in the dark. Detection was conducted. The machine readout value reflected the amount of [3H]-LSD bound on the membrane, and after further data processing, the affinity Ki values of different compounds for the 5-HTIA receptor were obtained. To examine the downstream G protein signaling pathway mediated by 5-HTIA receptors, on the first day, a 6 cm culture dish was used for transfection with 1 μg of 5-HTIA receptors, 1 μg of Gαi1 containing C-terminal seaweed luciferase (Gαi1-Rluc), 1 μg of Gβ3, 1 μg of Gγ9 containing C-terminal green fluorescent protein (Gγ9-GFP), and 16 μL of PEI. The next day, the confluent cells of a 6 cm culture dish were digested and reseeded into a 96-well plate with 100 μL of culture medium was added to each well. On the third day, the drugs were added for test. The 96-well plate was taken out from the cell incubator to decant the culture medium, 40 μL of the substrate coelenterazine 400a (final concentration of 5 μM) was added to each well, and then 20 μL of different drugs were added sequentially from left to right to ensure that the final concentration of the drug decreased gradually from bottom to top, with two replicates per treatment. Finally, the prepared samples were loaded on machine for test. The machine readout value reflected the dissociation of G protein trimer, and thereby indicated the degree of activation of the G protein signaling pathway downstream of the 5-HTIA receptors.

dopamine D2 receptors = dopamine D2 receptors (Homo sapiens (Human), UniProt P14416); experiment: Dopamine D2 receptor Gαi1 BRET (G protein trimer dissociation); type: cell-based; conditions: D2 receptor, G protein pathway;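 also: transfected cells co-expressing D2 receptor, Gαi1-Rluc, Gβ3 and Gγ9-GFP, BRET with coelenterazine 400a at 5 µM read as G protein trimer dissociation, graded drug concentrations in duplicate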
dopamine D2 receptors, sequence (P14416 whole entry): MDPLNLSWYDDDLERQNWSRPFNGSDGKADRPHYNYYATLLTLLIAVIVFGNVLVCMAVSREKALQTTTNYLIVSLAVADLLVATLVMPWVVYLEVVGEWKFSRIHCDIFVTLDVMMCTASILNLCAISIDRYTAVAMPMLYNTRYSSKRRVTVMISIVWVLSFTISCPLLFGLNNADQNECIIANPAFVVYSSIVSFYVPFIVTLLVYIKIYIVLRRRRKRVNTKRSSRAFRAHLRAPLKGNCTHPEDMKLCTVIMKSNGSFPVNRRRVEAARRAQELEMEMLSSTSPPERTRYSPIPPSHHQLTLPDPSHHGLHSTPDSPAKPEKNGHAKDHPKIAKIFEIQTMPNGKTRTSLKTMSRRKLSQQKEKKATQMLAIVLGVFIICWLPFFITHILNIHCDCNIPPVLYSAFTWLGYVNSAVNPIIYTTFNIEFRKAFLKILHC
Description: To examine the downstream G protein signaling pathway mediated by dopamine D2 receptors, on the first day, a 6 cm culture dish was used for transfection with 1 μg of dopamine D2 receptors, 1 μg of Gαi1 containing a C-terminal seaweed luciferase (Gαi1-Rluc), 1 μg of Gβ3, 1 μg of Gγ9 containing C-terminal green fluorescent protein (Gγ9-GFP), and 16 μL of PEI. At the same time, in order to examine the downstream β-arrestin2 signaling pathway mediated by dopamine D2 receptors, on the first day, a 6 cm culture dish was used for transfection with 500 μg of dopamine D2 receptors containing C-terminal seaweed luciferase (D2-Rluc), 500 μg of G protein-coupled receptor kinase 2 (GRK2), 2500 μg of β-arrestin2 containing N-terminal green fluorescent protein (GFP2-ARRB2) mixed with 14 μL of PEI. The next day, the confluent cells of a 6 cm culture dish were digested and reseeded into a 96-well plate with 100 μL of culture medium added to each well. On the third day, the drugs were added for test. The 96-well plate was taken out from the cell incubator to decant the culture medium, 40 μL of the substrate coelenterazine 400a (final concentration of 5 μM) was added to each well, and then 20 μL of different drugs were added sequentially from left to right to ensure that the final concentration of the drug decreased gradually from bottom to top, with two replicates per treatment. Finally, the prepared samples were loaded on machine for test. The machine readout value reflected the recruitment of β-arrestin2 to the membrane or the dissociation of G protein trimer. The former indicated the degree of activation of the β-arrestin2 signaling pathway downstream of the dopamine D2 receptors, and the latter indicated the degree of activation of the G protein signaling pathway downstream of the dopamine D2 receptors.

[2] = test system: hyperlocomotion of the mice induced by MK801; experiment: Open field test, hyperlocomotion induced by MK801; type: in vivo, C57B6 male mice; conditions: for Distance (cm) travelled in 45 minutes: 0-45 minute interval after MK-801; for Distance travelled (cm): 5-minute bin
Description: Experimental method: The experimental animals were C57B6 male mice, n=8 in each group. This model used C57B6 mice as experimental animals. Hyperlocomotion of the mice in open field was induced by acute injection of a NMDA antagonist MK801. and modeled to test the inhibitory effect of different compounds on hyperkinesia phenotype induced by MK801. All mouse behavior experiments were carried out during the light period, and the whole process was recorded by the camera and locomotive data were tracked and analyzed by behavioral tracking software. The compounds were administered intraperitoneally. Immediately after the injection, the mice entered the open field and their movement trajectories were recorded by the camera. After 30 minutes, the mice received 0.2 mg/kg of MK801 by intraperitoneal injection and returned to the open field immediately after administration and the movement trajectories were further recorded for 120 minutes. The accumulative travelled distance of the mice was counted in a 5-minute bin. Data statistics were performed using Student-t-test analysis, *p<0.05, ** p<0.01, *** p<0.001, **** p<0.0001.

CN(C)C(=O)N[C@H]1CC[C@H](CCN2CCN3c4cccc5scc(c45)CC3C2)CC1 (single isomer, unassigned; (-)) [(−)-I-27]
Immobility time (seconds), forced swimming test ([1]; (−)-I-27 0.025 mg/kg i.p.): 91.83 ± 6.80 s
Immobility time (seconds), forced swimming test ([1]; (−)-I-27 0.1 mg/kg i.p.): 56.89 ± 4.80 s
Ki (5-HT1A receptor): 80 nM
Gαi1 BRET (Emax %) (dopamine D2 receptors): (72.04%)
EC50 (dopamine D2 receptors; read-out: Gαi1 BRET EC50): 3.76 nM
Inhibition of MK801-induced hyperlocomotion ([2]; 0.4/0.2/0.1 mg/kg intraperitoneally, MK801 0.2 mg/kg): significantly inhibit hyperlocomotion
Distance (cm) travelled in 45 minutes ([2]; (−)-I-27 0.1 mg/kg i.p. + MK801 0.2 mg/kg): 6882.3 cm
Distance travelled (cm) ([2]; (−)-I-27 0.1 mg/kg i.p. + MK801 0.2 mg/kg, 5 minutes after MK801): 420.96 ± 66.32 cm
Distance travelled (cm) ([2]; (−)-I-27 0.1 mg/kg i.p. + MK801 0.2 mg/kg, 10 minutes after MK801): 405.21 ± 55.18 cm
Distance travelled (cm) ([2]; (−)-I-27 0.1 mg/kg i.p. + MK801 0.2 mg/kg, 15 minutes after MK801): 482.21 ± 74.21 cm
Distance travelled (cm) ([2]; (−)-I-27 0.1 mg/kg i.p. + MK801 0.2 mg/kg, 20 minutes after MK801): 708.05 ± 61.74 cm
Distance travelled (cm) ([2]; (−)-I-27 0.1 mg/kg i.p. + MK801 0.2 mg/kg, 25 minutes after MK801): 895.54 ± 92.18 cm
Distance travelled (cm) ([2]; (−)-I-27 0.1 mg/kg i.p. + MK801 0.2 mg/kg, 30 minutes after MK801): 1035.67 ± 122.77 cm
Distance travelled (cm) ([2]; (−)-I-27 0.1 mg/kg i.p. + MK801 0.2 mg/kg, 35 minutes after MK801): 1075.2 ± 123.55 cm
Distance travelled (cm) ([2]; (−)-I-27 0.1 mg/kg i.p. + MK801 0.2 mg/kg, 45 minutes after MK801): 942.97 ± 82.87 cm
Distance travelled (cm) ([2]; (−)-I-27 0.1 mg/kg i.p. + MK801 0.2 mg/kg, 50 minutes after MK801): 985.86 ± 96.6 cm
Distance travelled (cm) ([2]; (−)-I-27 0.1 mg/kg i.p. + MK801 0.2 mg/kg, 55 minutes after MK801): 925.44 ± 118.24 cm
Distance travelled (cm) ([2]; (−)-I-27 0.1 mg/kg i.p. + MK801 0.2 mg/kg, 60 minutes after MK801): 937.96 ± 121.52 cm
Distance travelled (cm) ([2]; (−)-I-27 0.1 mg/kg i.p. + MK801 0.2 mg/kg, 65 minutes after MK801): 931.08 ± 108.91 cm
Distance travelled (cm) ([2]; (−)-I-27 0.1 mg/kg i.p. + MK801 0.2 mg/kg, 70 minutes after MK801): 839.2 ± 104.29 cm
Distance travelled (cm) ([2]; (−)-I-27 0.1 mg/kg i.p. + MK801 0.2 mg/kg, 75 minutes after MK801): 773.65 ± 117.99 cm
Distance travelled (cm) ([2]; (−)-I-27 0.1 mg/kg i.p. + MK801 0.2 mg/kg, 80 minutes after MK801): 691.57 ± 121.79 cm
Distance travelled (cm) ([2]; (−)-I-27 0.1 mg/kg i.p. + MK801 0.2 mg/kg, 85 minutes after MK801): 682.97 ± 115.06 cm
Distance travelled (cm) ([2]; (−)-I-27 0.1 mg/kg i.p. + MK801 0.2 mg/kg, 90 minutes after MK801): 611.63 ± 112.71 cm
Distance travelled (cm) ([2]; (−)-I-27 0.1 mg/kg i.p. + MK801 0.2 mg/kg, 95 minutes after MK801): 432.95 ± 85.66 cm
Distance travelled (cm) ([2]; (−)-I-27 0.1 mg/kg i.p. + MK801 0.2 mg/kg, 100 minutes after MK801): 405.27 ± 69.97 cm
Distance travelled (cm) ([2]; (−)-I-27 0.1 mg/kg i.p. + MK801 0.2 mg/kg, 105 minutes after MK801): 391.87 ± 78.94 cm
Distance travelled (cm) ([2]; (−)-I-27 0.1 mg/kg i.p. + MK801 0.2 mg/kg, 110 minutes after MK801): 351.08 ± 112.22 cm
Distance travelled (cm) ([2]; (−)-I-27 0.1 mg/kg i.p. + MK801 0.2 mg/kg, 115 minutes after MK801): 310.3 ± 83.61 cm
Distance travelled (cm) ([2]; (−)-I-27 0.1 mg/kg i.p. + MK801 0.2 mg/kg, 120 minutes after MK801): 339.28 ± 95.35 cm
Distance travelled (cm) ([2]; (−)-I-27 0.1 mg/kg i.p., 0 minutes, before MK801): 446.62 ± 49.69 cm
Distance travelled (cm) ([2]; (−)-I-27 0.1 mg/kg i.p., −5 minutes, before MK801): 473.13 ± 38.54 cm
Distance travelled (cm) ([2]; (−)-I-27 0.1 mg/kg i.p., −10 minutes, before MK801): 479.62 ± 34 cm
Distance travelled (cm) ([2]; (−)-I-27 0.1 mg/kg i.p., −15 minutes, before MK801): 522.39 ± 41.17 cm
Distance travelled (cm) ([2]; (−)-I-27 0.1 mg/kg i.p., −20 minutes, before MK801): 606.78 ± 43.01 cm
Distance travelled (cm) ([2]; (−)-I-27 0.1 mg/kg i.p., −25 minutes, before MK801): 827.15 ± 76.34 cm
Distance (cm) travelled in 45 minutes ([2]; (−)-I-27 0.2 mg/kg i.p. + MK801 0.2 mg/kg): 5849.12 cm
Distance travelled (cm) ([2]; (−)-I-27 0.2 mg/kg i.p. + MK801 0.2 mg/kg, 5 minutes after MK801): 527.23 ± 55.9 cm
Distance travelled (cm) ([2]; (−)-I-27 0.2 mg/kg i.p. + MK801 0.2 mg/kg, 10 minutes after MK801): 353.73 ± 61.92 cm
Distance travelled (cm) ([2]; (−)-I-27 0.2 mg/kg i.p. + MK801 0.2 mg/kg, 15 minutes after MK801): 415.6 ± 122.18 cm
Distance travelled (cm) ([2]; (−)-I-27 0.2 mg/kg i.p. + MK801 0.2 mg/kg, 20 minutes after MK801): 555.77 ± 141.94 cm
Distance travelled (cm) ([2]; (−)-I-27 0.2 mg/kg i.p. + MK801 0.2 mg/kg, 25 minutes after MK801): 775.2 ± 174.1 cm
Distance travelled (cm) ([2]; (−)-I-27 0.2 mg/kg i.p. + MK801 0.2 mg/kg, 30 minutes after MK801): 815.56 ± 168.41 cm
Distance travelled (cm) ([2]; (−)-I-27 0.2 mg/kg i.p. + MK801 0.2 mg/kg, 35 minutes after MK801): 844.11 ± 141.81 cm
Distance travelled (cm) ([2]; (−)-I-27 0.2 mg/kg i.p. + MK801 0.2 mg/kg, 40 minutes after MK801): 771.62 ± 111.37| cm
Distance travelled (cm) ([2]; (−)-I-27 0.2 mg/kg i.p. + MK801 0.2 mg/kg, 45 minutes after MK801): 790.3 ± 145.96 cm
Distance travelled (cm) ([2]; (−)-I-27 0.2 mg/kg i.p. + MK801 0.2 mg/kg, 50 minutes after MK801): 741.75 ± 130.61 cm
Distance travelled (cm) ([2]; (−)-I-27 0.2 mg/kg i.p. + MK801 0.2 mg/kg, 55 minutes after MK801): 547.84 ± 71.53 cm
Distance travelled (cm) ([2]; (−)-I-27 0.2 mg/kg i.p. + MK801 0.2 mg/kg, 60 minutes after MK801): 707.09 ± 102.86 cm
Distance travelled (cm) ([2]; (−)-I-27 0.2 mg/kg i.p. + MK801 0.2 mg/kg, 65 minutes after MK801): 653.46 ± 142.7 cm

Reference: patent publication US20240383913A1, “THIOPHENE RING COMPOUND, PREPARATION METHOD THEREFOR AND APPLICATION THEREOF” (CENTER FOR EXCELLENCE IN MOLECULAR CELL SCIENCE, CHINESE …, priority 2021, published 2024)
